Assay [1] relates to C. albicans. The experiment in a line: MIC, broth microdilution (NCCLS M27-A), C. albicans. It counts as cell-based, Candida albicans. To be noted: Candida albicans, ATCC10231, 35° C., 48 hours, C. albicans ATCC 10231. The procedure:
(§1) Compounds of the invention were tested for antifungal susceptibility using broth microdilution assay established by the National Committee for Clinical Laboratory Standards, in NCCLS Document M27-A, which is hereby incorporated by reference. Minimum inhibitory concentrations (MICs) and minimum fungicidal concentrations (MFCs) were measured.
(§2) Yeasts (Saccharomyces cerevisiae and Candida albicans) are cultured on SDA plates in a 35° C. incubator. Strains on SDA plates are stored at 4° C. and used as working stock cultures.
(§3) Inoculum for susceptibility testing is prepared from fresh 24 hour cultures. 5-10 colonies are scraped from the plate and suspended in three milliliters of sterile 0.85% saline (8.5 g/liter NaCl). The cell density of the solution is determined by measuring the absorbance in a spectrophotometer (Shimadzu UV-1201S UV-VIS Spectrophotometer) set at 600 nm. An absorbance value between 0.1 and 0.4 is required for an accurate reading.
(§4) For Candida albicans strains ATCC 10231, 1.0 OD600 unit is approximately 10^7 cells per ml. For Saccharomyces cerevisiae strain CTY552, 1.0 OD600 unit is slightly less than 10^7 cells per ml. Cell suspensions are diluted with the appropriate medium (typically RPMI-1640) to OD600 =0.0003 for Candida and OD600 =0.0004 for Saccharomyces. The diluted suspension contains approximately 3×10^3 cells per ml (this is a 2×concentration inoculum). Two 100 μl aliquots of this dilution are spread on SDA plates and incubated at 35° C. for 1-2 days to determine the precise number of colony forming units. An acceptable range for the inoculum (2×) is 1-5×10^3 cfu/ml (100-500 for 100 μl). Following two-fold dilution of the inoculum with compound, the final concentration of cells will be 0.5-2.5×10^3 per ml. The inoculum is kept at 4° C. and used within a few hours.
(§5) Stock solutions and concentrations tested will vary from compound to compound. In general, though, stock solutions of 12.8 mg/ml in DMSO (Sigma D-8779) are prepared. This will allow for a 128 μg/ml starting test concentration containing 1% DMSO. Stock solutions are stored at -20° C. and dilutions for antifungal testing are freshly prepared before each assay.
(§6) Stock solutions of Amphotericin B and Itraconazole are prepared at 1.6 mg/ml in DMSO. Amphotericin B is sold as a powder that is approximately 80% Amphotericin B. Stock solutions are made accordingly (2.0 mg of powder for a 1 ml solution of 1.6 mg/ml Amphotericin B).
(§7) Both of these (control and test compounds) represent 1:50 dilutions. For an assay with three fungal strains, 40 microliters of a stock solution are diluted to 2.0 ml with room temperature medium.
(§8) Antifungal susceptibility tests are setup in polystyrene, 96-well, flat bottom plates (Costar 9017). To every well in columns 2-12 is added 100 microliters of media. An electronic multichannel (12) pipettor with no tip on channel one is used. To every well in column one is added 200 microliters of diluted compound (32 μg/ml for Amphotericin B and Itraconazole controls, 256 μg/ml for test compounds, 100-fold dilution for natural product extracts). A manual multichannel (8) pipettor is then used to set up a series of 2-fold dilutions. 100 microliters is removed from each well of column one and mixed with 100 microliters in column 2. This is done successively (column two to column three etc.) to produce a set of 11 serial dilutions (column 12 is a drug free control).
(§9) To every well in two rows, 100 μl of inoculum (2×) of a single strain is added. To the final two rows on the plate (G & H), only media is added. Addition of inoculum is best accomplished using an electronic multichannel (12) pipettor. This setup (see below) creates a starting cell density of […] (100-500 per well) and drug concentration ranging from 16 μg/ml to […] for controls (Amphotericin B and Itraconazole), 128 μg/ml to 0.125 μg/ml for pure test compounds, and 200 to 204, 800-fold dilutions for natural product extracts.
Background: Broth dilution looks for growth in wells or tubes with falling amounts of substance.

For assay [2], the system named is C. albicans. The experiment in a line: Minimum fungicidal concentration (MFC), C. albicans. Particulars: Candida albicans; viability on SDA plate, 35° C. It counts as cell-based, Candida albicans. The procedure:
as §1, §2, §3, §4, §5, §6
(§10) Stock solutions of control compounds (1.6 mg/ml, Amphotericin B or Itraconazole) are initially diluted in medium to a concentration of 32 μg/ml while stock solutions of test compounds (typically 12.8 mg/ml) are diluted to 256 μg/ml. Both of these (control and test compounds) represent 1:50 dilutions. For an assay with three fungal strains, 40 microliters of a stock solution are diluted to 2.0 ml with room temperature medium.
as §8
(§11) To every well in two rows, 100 μl of inoculum (2×) of a single strain is added. To the final two rows on the plate (G & H), only media is added. Addition of inoculum is best accomplished using an electronic multichannel (12) pipettor. […]

A further assay has as its system A. Nidulans. Put plainly: MIC, broth microdilution (NCCLS M27-A), A. nidulans. It counts as cell-based. To be noted: Aspergillus nidulans, 35° C., 48 hours. The procedure:
as §1
Filamentous fungi (Aspergillus spp.) is cultured on PDA plates in a 35° C. incubator. Inoculum of Aspergillus for susceptibility testing is prepared from plates incubated at 35° C. for 5 days. Colonies are covered with 5 ml of sterile 0.85% saline (8.5 g/liter NaCl) and gently rocked for 10-15 minutes. To dislodge the conidia, an automatic pipettor is used to gently wash over the colonies. The saline solution is removed from the plate and the heavy particles are allowed to settle for 3-5 minutes. The upper suspension is removed and vortexed for 15 sec. The turbidity of the solution is determined by measuring the absorbance in a spectrophotometer (Shimadzu UV-1201S UV-VIS Spectrophotometer) set at 600 nm. An absorbance value between 0.1 and 0.4 is required for an accurate reading.
The cell suspension is diluted with the appropriate medium (typically RPMI-1640) to OD600 =0.0004. The final suspension should contain approximately 3×10^3 cfu per ml (this is a 2×concentrationinoculum). Two 100 μl aliquots of this dilution are spread on SDA plates and incubated at 35° C. for 1-2 days to determine the precise number of colony forming units. An acceptable range for the inoculum (2×) is 1-5×10^3 cfu/ml (100-500 for 100 μl). Following two-fold dilution of the inoculum with compound, the final concentration of cells will be 0.5-2.5×10^3 per ml. The inoculum is kept at 4° C. and used within a few hours.
as §5, §6, §7, §8, §9

The next assay has as its system S. serevisiae. The experiment in a line: MIC, broth microdilution (NCCLS M27-A), S. cerevisiae. Particulars: Saccharomyces cerevisiae, 48 h, read-out: MIC S. serevisiae. Type of assay: cell-based, Saccharomyces cerevisiae. The procedure:
as §1, §2, §3, §4, §5, §6, §10, §8, §11

The text below walks through data of patent publication US6329378A, “Hydrazone, hydrazine and thiosemicarbazone derivatives as antifungal agents” (Anadys Pharmaceuticals, Inc., priority 2000, dated 2001).

For orientation: MIC means the lowest concentration that inhibits growth of the organism. The MFC is the smallest concentration meeting the test's criterion for killing the fungus. Read a low MFC as more potent killing.

Structures are written as SMILES. Values after ≈ are worked out from the molar mass of the structure shown.

Consider `Oc1cc(OCc2ccccc2)ccc1/C=N/NC(=S)Nc1cccc(C(F)(F)F)c1` [(42)], for which the MIC with C. albicans [1], in the assay with A. Nidulans and with S. serevisiae was 0.25 µg/mL (≈ 0.561 µM) in each case. In addition, the MFC against C. albicans [2] was > 128 µg/mL.
Take `CCN(CC)c1ccc(/C=N/NC(=S)Nc2cccc(C(F)(F)F)c2)c(O)c1` [(48)]: the minimal inhibitory concentration (MIC) was 1 µg/mL (≈ 2.44 µM) against C. albicans [1], 0.5 µg/mL (≈ 1.22 µM) against A. Nidulans and 0.5 µg/mL (≈ 1.22 µM) in the assay on S. serevisiae. For the same compound, the MFC against C. albicans [2] was > 128 µg/mL.
Take `Oc1cc(N2CCOCC2)ccc1/C=N/NC(=S)Nc1cccc(C(F)(F)F)c1` [(49)]: the MIC against C. albicans [1] amounted to 2 µg/mL (≈ 4.71 µM); against A. Nidulans, 0.5 µg/mL (≈ 1.18 µM); with S. serevisiae it was 1 µg/mL (≈ 2.36 µM). Moreover, in the assay with C. albicans [2], the MFC is > 128 µg/mL.
